Assay results from patent US11873319B2, “Cyclic di-nucleotide induction of type I interferon” (The Regents of the University of California, priority 2013, dated 2024).

How the values were obtained:
[1] = biological target: hSTING (Homo sapiens, UniProt Q86WV6); details: Conlon et al.; cited from earlier work
[2] = human clinical trials; cited from earlier work
[3] = system: variant STING alleles; experiment: UV crosslinking binding assay of variant STING alleles to 32P-c-di-GMP; design: species or system mouse and human; details: lysates of transfected 293T cells, FIG. 3B
Experimental: FIG. 1, panels A-F show the variable responsiveness of human STING variants to cyclic-di-nucleotides maps to arginine 232. (Panel A) THP-1 cells were transduced with vectors encoding an shRNA targeting STING or a control shRNA. Cells were then stimulated with cyclic-di-GMP (cdG), dsDNA, cyclic-di-AMP (cdA), poly-inosine:cytosine (pI:C), or Sendai Virus, and induction of human interferon-β mRNA was assessed by quantitative reverse transcriptase PCR. (Panel B) Western blotting confirmed that knockdown of STING was effective. (Panel C) HEK293T cells were transfected with the indicated amounts of various mouse (m) or human (h) STING expression plasmid and then stimulated 6 h later by transfection with synthetic cdG (5 μM). […] STING activation was assessed by use of a co-transfected IFN-luciferase reporter construct. […] IFN induction was measured by qRT-PCR. ND, not detected. […] Binding was quantified by autoradiography. […]
(Panel A) 293T cells were transfected with the indicated alleles of mouse (m)STING or human (h)STING and were then stimulated with c-di-GMP (cdG). STING activity was detected by the induction of a co-transfected IFN-luciferase reporter construct and expressed as fold-induction over luciferase activity of unstimulated cells. (Panel B) Lysates of transfected 293T cells were UV crosslinked in the presence of α32P-c-di-GMP, resolved by SDS-PAGE, and then analyzed by autoradiography. […]

hSTING, sequence (Q86WV6 whole entry): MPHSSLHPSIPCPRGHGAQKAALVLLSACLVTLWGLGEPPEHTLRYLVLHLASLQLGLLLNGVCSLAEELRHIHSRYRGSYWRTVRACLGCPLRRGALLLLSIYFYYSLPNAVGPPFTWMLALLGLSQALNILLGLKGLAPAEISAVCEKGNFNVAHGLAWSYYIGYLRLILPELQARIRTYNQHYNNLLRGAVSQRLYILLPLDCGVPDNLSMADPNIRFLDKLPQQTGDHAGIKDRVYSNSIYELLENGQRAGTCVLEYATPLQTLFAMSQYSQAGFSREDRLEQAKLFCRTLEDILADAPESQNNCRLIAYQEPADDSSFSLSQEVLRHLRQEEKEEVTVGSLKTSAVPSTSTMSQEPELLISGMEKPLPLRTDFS

SMILES	stimulation of hSTING [1]	efficacy in humans [2]	binding to variant STING alleles [3]
Cc1ccc2c(=O)c3cccc(CC(=O)O)c3oc2c1C [DMXAA]	unable to stimulate	not found to be efficacious	–
Nc1nc2c(ncn2[C@@H]2O[C@@H]3COP(=O)(O)O[C@H]4[C@@H](O)[C@H](n5cnc6c(=O)[nH]c(N)nc65)O[C@@H]4COP(=O)(O)O[C@H]3[C@H]2O)c(=O)[nH]1 [cyclic-di-GMP]	–	–	bound
